Laboratory results published in paper PMC11410943 (Nature Communications, 2024).
In brackets after ≈: the same amount, converted by molar mass. Like-named read-outs stand apart in the source and are kept apart here.

How the values were obtained:
Escherichia coli = assay: MIC
Klebsiella pneumoniae = assay: MIC
Enterobacter cloacae = assay: MIC; settings: IHMA/CARB-X MDR clinical isolates 2019, N=152
Citrobacter spp. = assay: MIC
Proteus spp. = assay: MIC
Morganella morganii = assay: MIC; settings: IHMA/CARB-X MDR clinical isolates 2019, N=42
E. coli gyrase = E. coli gyrase (Escherichia coli, UniProt P0AES4); assay: E. coli gyrase supercoiling inhibition; assay type: biochemical
Pseudomonas aeruginosa = assay: MIC
Acinetobacter baumannii = assay: MIC; settings: Acinetobacter baumannii, IHMA/CARB-X MDR clinical isolates 2019, N=298
Serratia marcescens = assay: MIC; settings: IHMA/CARB-X MDR clinical isolates 2019, N=45
hERG K+ channel = hERG K+ channel (Homo sapiens, UniProt Q12809); assay: hERG automated patch-clamp; assay type: cell-based
E. coli topoisomerase IV = E. coli topoisomerase IV (Escherichia coli, UniProt P0AFI2); assay: E. coli topoisomerase IV decatenation inhibition; assay type: biochemical
[1] = tested on: MDR Gram-negative and Gram-positive pathogens; assay: MIC
[2] = IHMA/CARB-X MDR clinical isolates 2019, N=300

E. coli gyrase, sequence (P0AES4 whole entry): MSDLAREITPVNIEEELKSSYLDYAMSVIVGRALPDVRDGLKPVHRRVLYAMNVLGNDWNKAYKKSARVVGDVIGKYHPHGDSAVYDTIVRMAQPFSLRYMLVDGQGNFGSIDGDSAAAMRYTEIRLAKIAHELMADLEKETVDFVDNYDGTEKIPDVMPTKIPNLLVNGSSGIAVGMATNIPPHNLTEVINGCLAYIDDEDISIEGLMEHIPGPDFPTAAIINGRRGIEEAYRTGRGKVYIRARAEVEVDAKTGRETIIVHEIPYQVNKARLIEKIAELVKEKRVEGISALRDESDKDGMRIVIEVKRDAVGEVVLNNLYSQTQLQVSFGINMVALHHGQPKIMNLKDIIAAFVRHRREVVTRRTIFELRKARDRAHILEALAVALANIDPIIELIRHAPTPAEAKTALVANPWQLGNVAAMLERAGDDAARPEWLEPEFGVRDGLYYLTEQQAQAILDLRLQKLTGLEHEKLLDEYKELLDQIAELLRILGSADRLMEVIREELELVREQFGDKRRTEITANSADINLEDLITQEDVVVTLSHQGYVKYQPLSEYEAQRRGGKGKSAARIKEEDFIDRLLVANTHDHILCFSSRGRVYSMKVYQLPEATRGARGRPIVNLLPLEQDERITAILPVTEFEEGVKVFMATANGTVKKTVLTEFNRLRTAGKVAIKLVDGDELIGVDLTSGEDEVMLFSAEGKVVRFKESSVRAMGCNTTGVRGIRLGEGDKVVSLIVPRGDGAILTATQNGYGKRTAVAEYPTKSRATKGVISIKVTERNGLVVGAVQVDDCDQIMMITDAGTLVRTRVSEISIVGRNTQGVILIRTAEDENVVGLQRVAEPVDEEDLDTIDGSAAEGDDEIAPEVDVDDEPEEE
E. coli topoisomerase IV, sequence (P0AFI2 whole entry): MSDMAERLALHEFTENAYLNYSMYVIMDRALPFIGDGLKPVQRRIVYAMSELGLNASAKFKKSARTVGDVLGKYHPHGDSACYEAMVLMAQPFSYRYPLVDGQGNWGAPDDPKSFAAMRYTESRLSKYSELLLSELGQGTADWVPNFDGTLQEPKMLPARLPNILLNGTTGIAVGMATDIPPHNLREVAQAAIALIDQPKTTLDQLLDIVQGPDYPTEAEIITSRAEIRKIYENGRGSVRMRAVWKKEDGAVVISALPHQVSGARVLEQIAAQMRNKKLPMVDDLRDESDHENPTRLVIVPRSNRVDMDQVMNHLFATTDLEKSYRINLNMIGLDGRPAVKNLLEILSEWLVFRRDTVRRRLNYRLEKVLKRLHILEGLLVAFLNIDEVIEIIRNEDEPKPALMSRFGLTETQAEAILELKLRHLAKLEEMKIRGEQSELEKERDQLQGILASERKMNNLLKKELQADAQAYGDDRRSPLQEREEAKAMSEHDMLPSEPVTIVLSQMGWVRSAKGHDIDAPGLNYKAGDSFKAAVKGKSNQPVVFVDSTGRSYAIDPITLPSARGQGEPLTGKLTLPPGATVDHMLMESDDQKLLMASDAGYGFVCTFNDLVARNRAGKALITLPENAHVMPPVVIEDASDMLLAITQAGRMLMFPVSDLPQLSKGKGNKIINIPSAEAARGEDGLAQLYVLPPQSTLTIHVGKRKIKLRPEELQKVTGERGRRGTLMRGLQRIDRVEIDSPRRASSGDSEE
E. coli topoisomerase IV, sequence (P20083 whole entry partner): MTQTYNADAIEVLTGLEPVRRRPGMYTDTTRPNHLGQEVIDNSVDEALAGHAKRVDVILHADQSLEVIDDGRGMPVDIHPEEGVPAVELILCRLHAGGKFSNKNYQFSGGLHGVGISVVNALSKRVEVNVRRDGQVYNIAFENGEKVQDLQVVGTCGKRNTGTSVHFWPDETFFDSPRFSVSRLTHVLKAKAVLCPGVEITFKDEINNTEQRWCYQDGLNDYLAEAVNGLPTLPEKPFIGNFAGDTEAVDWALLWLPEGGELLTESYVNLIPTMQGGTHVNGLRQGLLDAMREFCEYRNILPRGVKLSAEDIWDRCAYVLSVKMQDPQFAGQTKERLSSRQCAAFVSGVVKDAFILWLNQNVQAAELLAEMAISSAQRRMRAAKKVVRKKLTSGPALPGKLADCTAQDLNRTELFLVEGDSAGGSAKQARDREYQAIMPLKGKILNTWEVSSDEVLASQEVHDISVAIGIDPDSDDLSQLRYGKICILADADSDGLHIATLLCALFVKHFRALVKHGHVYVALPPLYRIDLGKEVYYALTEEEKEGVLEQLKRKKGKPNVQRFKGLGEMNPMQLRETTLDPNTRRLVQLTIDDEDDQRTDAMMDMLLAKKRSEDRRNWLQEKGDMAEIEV
hERG K+ channel, sequence (Q12809 whole entry): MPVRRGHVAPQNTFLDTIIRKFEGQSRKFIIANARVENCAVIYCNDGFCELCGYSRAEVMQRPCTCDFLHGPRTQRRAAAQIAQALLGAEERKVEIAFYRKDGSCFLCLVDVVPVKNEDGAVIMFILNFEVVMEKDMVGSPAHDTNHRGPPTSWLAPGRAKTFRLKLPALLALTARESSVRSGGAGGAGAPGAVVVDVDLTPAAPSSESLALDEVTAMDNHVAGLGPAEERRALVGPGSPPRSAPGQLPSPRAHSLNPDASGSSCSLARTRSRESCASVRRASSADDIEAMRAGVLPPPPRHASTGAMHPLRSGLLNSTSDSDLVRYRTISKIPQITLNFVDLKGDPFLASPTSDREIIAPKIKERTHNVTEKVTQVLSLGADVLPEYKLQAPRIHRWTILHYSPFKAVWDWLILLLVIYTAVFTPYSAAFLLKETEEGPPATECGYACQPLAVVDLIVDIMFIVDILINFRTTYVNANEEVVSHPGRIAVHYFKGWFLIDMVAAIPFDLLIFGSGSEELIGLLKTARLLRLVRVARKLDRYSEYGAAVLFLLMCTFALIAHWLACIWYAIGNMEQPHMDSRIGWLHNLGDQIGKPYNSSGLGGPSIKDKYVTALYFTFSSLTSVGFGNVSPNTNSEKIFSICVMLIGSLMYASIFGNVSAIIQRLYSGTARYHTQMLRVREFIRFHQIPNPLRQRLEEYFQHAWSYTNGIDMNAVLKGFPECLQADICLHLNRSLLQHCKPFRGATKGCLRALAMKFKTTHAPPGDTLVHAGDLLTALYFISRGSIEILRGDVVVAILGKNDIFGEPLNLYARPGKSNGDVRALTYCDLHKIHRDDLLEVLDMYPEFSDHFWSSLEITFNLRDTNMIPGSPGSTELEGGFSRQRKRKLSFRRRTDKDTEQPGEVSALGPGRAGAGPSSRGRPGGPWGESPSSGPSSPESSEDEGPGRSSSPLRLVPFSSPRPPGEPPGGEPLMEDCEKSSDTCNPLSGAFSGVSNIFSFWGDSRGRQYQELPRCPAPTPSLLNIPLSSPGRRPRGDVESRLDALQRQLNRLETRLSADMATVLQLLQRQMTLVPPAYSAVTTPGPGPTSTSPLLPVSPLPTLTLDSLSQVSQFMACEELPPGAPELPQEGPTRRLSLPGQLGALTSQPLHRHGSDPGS

| Molecule | MIC90 (Escherichia coli; Escherichia coli) | MIC90 (Klebsiella pneumoniae; Klebsiella pneumoniae) | MIC90 (Enterobacter cloacae; Enterobacter cloacae) | MIC90 (Citrobacter spp.; Citrobacter) | MIC90 (Proteus spp.) | MIC90 (Morganella morganii; Morganella morganii) | MIC90 (Pseudomonas aeruginosa; Pseudomonas aeruginosa) | MIC90 (Acinetobacter baumannii) | also measured |
| --- | --- | --- | --- | --- | --- | --- | --- | --- | --- |
| CN[C@@H]1[C@@H](O)[C@@H](O[C@@H]2[C@@H](O)[C@H](O[C@H]3OC(CNCCO)=CC[C@H]3N)[C@@H](N)C[C@H]2NC(=O)[C@@H](O)CCN)OC[C@]1(C)O [Plazomicin] | 1 µg/mL (≈ 1.69 µM) | 0.5 µg/mL (≈ 0.844 µM) | 0.5 µg/mL (≈ 0.844 µM) | 0.5 µg/mL (≈ 0.844 µM) | 4 µg/mL (≈ 6.75 µM) | 8 µg/mL (≈ 13.5 µM) |  |  |  |
| CN1C(=O)Cc2ccc(F)c(CNCCCC3CN(c4ccc5c(n4)NC(=O)CO5)C(=O)O3)c21 (stereo not shown) [Compound 2, 6-[5-[3-[[(6-Fluoro-2,3-dihydro-1-methyl-2-oxo-1H-indol-7-yl)methyl]amino]propyl]−2-oxo-3-oxazolidinyl]−2H-pyrido[3,2-b]−1,4-oxazin-3(4H)-one] |  |  |  |  |  |  |  |  | improvement in gyrase supercoiling and topoIV decatenation IC50 over compound 1 (E. coli gyrase): > 100 fold |
| CNC(C)C1CCC(N)C(OC2C(N)CC(N)C(OC3OCC(C)(O)C(NC)C3O)C2O)O1 (stereo not shown) [Gentamicin] | > 32 µg/mL | > 32 µg/mL | 1 µg/mL (≈ 2.09 µM) | 8 µg/mL (≈ 16.8 µM) | 16 µg/mL (≈ 33.5 µM) | 64 µg/mL (≈ 134 µM) | > 32 µg/mL | > 32 µg/mL |  |
| CC(C)(O/N=C(\C(=O)N[C@@H]1C(=O)N2C(C(=O)[O-])=C(C[n+]3ccccc3)CS[C@H]12)c1csc(N)n1)C(=O)O [Ceftazidime] | 64 µg/mL (≈ 117 µM) | > 64 µg/mL | 128 µg/mL (≈ 234 µM) | > 64 µg/mL | 2 µg/mL (≈ 3.66 µM) | 16 µg/mL (≈ 29.3 µM) | > 32 µg/mL | > 32 µg/mL |  |
| Ceftazidime-Avibactam |  |  |  |  |  |  |  |  | MIC90 (Escherichia coli; [2]): 0.25 µg/mL; MIC90 (Pseudomonas aeruginosa; [2]): > 16 µg/mL; MIC90 (Klebsiella pneumoniae; [2]): 1 µg/mL; MIC90 (Enterobacter cloacae): 2 µg/mL; MIC90 (Citrobacter spp.; IHMA/CARB-X MDR clinical isolates 2019, N=151): 0.5 µg/mL; MIC90 (Proteus spp.; IHMA/CARB-X MDR clinical isolates 2019, N=152): 0.06 µg/mL; MIC90 (Serratia marcescens): 1 µg/mL; MIC90 (Morganella morganii): 0.125 µg/mL |
| CC(C)(O/N=C(\C(=O)N[C@@H]1C(=O)N2C(C(=O)[O-])=C(C[N+]3(CCNC(=O)c4ccc(O)c(O)c4Cl)CCCC3)CS[C@H]12)c1csc(N)n1)C(=O)O [Cefiderocol] | 2 µg/mL (≈ 2.66 µM) | 2 µg/mL (≈ 2.66 µM) | 4 µg/mL (≈ 5.32 µM) | 2 µg/mL (≈ 2.66 µM) | 0.5 µg/mL (≈ 0.665 µM) | 1 µg/mL (≈ 1.33 µM) | 2 µg/mL (≈ 2.66 µM) | 4 µg/mL (≈ 5.32 µM) |  |
| NC[C@H]1O[C@H](O[C@H]2[C@H](O)[C@@H](O[C@H]3O[C@H](CO)[C@@H](O)[C@H](N)[C@H]3O)[C@H](N)C[C@@H]2N)[C@H](N)C[C@@H]1O [Tobramycin] | 16 µg/mL (≈ 34.2 µM) | > 32 µg/mL | 32 µg/mL (≈ 68.4 µM) | 8 µg/mL (≈ 17.1 µM) | 8 µg/mL (≈ 17.1 µM) | 16 µg/mL (≈ 34.2 µM) | > 32 µg/mL | > 32 µg/mL |  |
| Cn1c(=O)ccc2ccc(F)c(CCNC[C@@H]3CN(c4cnc5c(n4)NC(=O)CO5)C(=O)O3)c21 [Compound 8, 6-[(5 R)−5-[[[2-(7-Fluoro-1,2-dihydro-1-methyl-2-oxo-8-quinolinyl)ethyl]amino]methyl]−2-oxo-3-oxazolidinyl]−2H-pyrazino[2,3-b]−1,4-oxazin-3(4H)-one] |  |  |  |  |  |  |  |  | IC50 (hERG K+ channel): 60 µM |
| NCCCC1CN(c2ccc3c(n2)NC(=O)CO3)C(=O)O1 (stereo not shown) [Compound 1, 6-[5-(3-Aminopropyl)−2-oxo-3-oxazolidinyl]−2H-pyrido[3,2-b]−1,4-oxazin-3(4H)-one] |  |  |  |  |  |  |  |  | IC50 (E. coli gyrase): 13.2 µM; IC50 (E. coli topoisomerase IV): 27 µM; MIC [1]: 80 to 160 µg/mL (≈ 274 to 547 µM) |
| C[C@H]1COc2c(N3CCN(C)CC3)c(F)cc3c(=O)c(C(=O)O)cn1c23 [Levofloxacin] | 16 µg/mL (≈ 44.3 µM) | > 32 µg/mL | 64 µg/mL (≈ 177 µM) | 2 µg/mL (≈ 5.53 µM) | 8 µg/mL (≈ 22.1 µM) | 16 µg/mL (≈ 44.3 µM) | 32 µg/mL (≈ 88.6 µM) | > 32 µg/mL |  |
| C[C@@H](O)[C@H]1C(=O)N2C(C(=O)O)=C(S[C@@H]3CN[C@H](C(=O)N(C)C)C3)[C@H](C)[C@H]12 [Meropenem] | ≤ 0.06 µg/mL | 32 µg/mL (≈ 83.4 µM) | 8 µg/mL (≈ 20.9 µM) | ≤ 0.06 µg/mL | 0.125 µg/mL (≈ 0.326 µM) | 0.125 µg/mL (≈ 0.326 µM) | 32 µg/mL (≈ 83.4 µM) | > 64 µg/mL |  |
| CO/N=C(\C(=O)N[C@@H]1C(=O)N2C(C(=O)[O-])=C(C[N+]3(C)CCCC3)CS[C@H]12)c1csc(N)n1 [Cefepime] | > 32 µg/mL | > 32 µg/mL |  | > 32 µg/mL | 16 µg/mL (≈ 33.3 µM) | > 32 µg/mL | > 32 µg/mL | > 32 µg/mL |  |
| C[C@H]1c2cccc(O)c2C(=O)C2=C(O)[C@]3(O)C(=O)C(C(N)=O)=C(O)[C@@H](N(C)C)[C@@H]3[C@@H](O)[C@@H]21 [Doxycycline] | 32 µg/mL (≈ 72 µM) | 32 µg/mL (≈ 72 µM) | 16 µg/mL (≈ 36 µM) | 16 µg/mL (≈ 36 µM) | > 32 µg/mL | 64 µg/mL (≈ 144 µM) | 32 µg/mL (≈ 72 µM) | 64 µg/mL (≈ 144 µM) |  |
